Experimental data: article PMC9296036, “A peptide interfering with the dimerization of oncogenic KITENIN protein and its stability suppresses colorectal tumour progression” (Clinical and Translational Medicine, 2022)
Ends that are not written are not given here.

System: CT-26/iRFP/KITENIN-V5 liver metastases
Test: Intrasplenic hepatic metastasis model, CT-26/iRFP/KITENIN-V5 cells in syngeneic mice
Format: in vivo, mouse
Method: For hepatic metastasis analysis, 5‐ to 6‐week‐old Balb/c mice were obtained from OrientBio, Inc. (Seongnam, Korea) and housed in metal cages with free access to water and food. A syngeneic mouse model of colorectal liver metastasis was established by an infusion of tumour cells into the portal system via intrasplenic injection.[27] In brief, CT‐26/KITENIN‐iRFP‐expressing cells (2 × 10^5 cells/mouse) were injected into the spleen. Splenectomy was performed 15 min after an injection of CT‐26 cells. Mice were randomly assigned to two groups: scrambled peptide and KDIP (1, 5 mg/kg). Each peptide was given via intravenous injection six times for 2 weeks after 7 days of inoculation of tumour cells. Metastatic tumour nodules in the liver with a diameter of >1.0 mm were counted using a microscope, and a metastasis score was allocated based on nodule size as follows: 0 (no gross metastasis), 1 (tumour size >1 mm), 2 (tumour size 1 >5 mm) and 3 (tumour size >10 mm). The metastasis score was obtained by multiplying the number and the score of nodules. Fluorescence images of liver nodules expressing iRFP were taken using a Fluorescence‐labelled Organism Bioimaging Instrument (Cellgentek, Korea) and total fluorescence emitted from liver nodules was measured and compared between groups.
Effect of KAI1 C‐terminal interacting tetraspanin (KITENIN) dimerization‐interfering peptide (KDIP) on tumour growth and metastasis in in vivo mouse model of colorectal cancer (CRC). (A) Treatment with KDIP decreases cell invasion of KITENIN‐overexpressing CT‐26 cells. Cell invasion assay was performed in CT‐26 cells transfected with KITENIN and treated with scr‐peptide or KDIP (1 μM) (upper panel). […] For the evaluation of metastasis, total fluorescence emitted from liver nodules expressing iRFP was measured and counted (left panel) or metastatic tumour growth was counted as nodules that migrated to the surface of the liver, and a metastatic score was obtained by multiplying it with size (middle panel). Metastatic score or total fluorescence is represented as mean ± SEM. […]

[1] = KDIP 5 mg/kg versus scrambled peptide, immunoblot densitometry, n = 6

With YARVRRRGPRRWRLVSDEAV [KDIP] the “fluorescence of the hepatic nodule (liver metastasis, in words)” value (KDIP 5 mg/kg intravenously for 2 weeks, compared with scramble peptide group) was “significantly reduced”, the “KITENIN level in metastatic liver nodules (in words)” value [1] was “significantly decreased” and the “protein level of Myo10 in metastatic liver nodules (in words)” value [1] was “significantly decreased”.
